What all share (assay type): cell-based
Assay [1] deals with IKZF3 (Aiolos) (Homo sapiens (Human), UniProt Q96SW2+Q9UKT9). As to the kind of experiment: IKZF3 reporter degradation assay (HEK 293T IKZF3-mNeonGreen reporter cell line). The settings on record: HEK 293T reporter cells, 24 hour incubation. The source says: (§1) Polycistronic plasmids were constructed for the mammalian expression of fluorescent reporter fusions of human transcription factors IKZF1 (Ikaros), IKZF2 (Helios), and IKZF3 (Aiolos). The respective protein sequences had their C-terminal end joined to a GGGGS linker repeated three times followed by mNeonGreen, P2A sequence, and mScarlet. The DNA sequences of the open reading frames are as follows:
(§2) IKZF1, IKZF2, and IKZF3 constructs were cloned into the UCOE Hygromycin expression vectors (Millipore Sigma). Reporter constructs were transfected using cationic lipid reagents into adherent HEK 293T cells and stable integrants were selected by treatment with 200 μg/mL hygromycin B. Clonal populations were obtained from the population of stable integrants either by limiting dilution or fluorescence activated cell sorting.
(§3) The clonal stable cell lines were maintained under constant 200 μg/mL hygromycin B selection while being passaged for use in the degradation assays. […] The fluorescence intensity of the IKZF1/2/3-mNeonGreen (FITC channel) and mScarlet (PE channel) reporters were routinely analyzed by flow cytometry to confirm consistent expression levels between experiments.
(§4) The IKZF1/IKZF2/IKZF3 degradation assays were carried out by harvesting the HEK 293T reporter cell lines and resuspending the cells in media formulated for reduced background fluorescence (FluoroBrite; Thermo Fisher). The respective cell lines were seeded at a density of 4000 cells/well into black-walled 384-well optical grade assay tissue culture plates. The cells were incubated overnight at 37° C. to allow for attachment to the assay plate. Dilutions of the compounds were prepared in DMSO from 10 mM compound stocks. The assay plates were treated with appropriate concentrations of the compounds by dispensing the DMSO dilutions in quadruplicate wells with an upper limit of 0.5% final DMSO.
(§5) After 24 hour incubation with the compounds, the assay plates were imaged on an ImageXpress Pico microscopy system (cells maintained at 37° C. during imaging) to obtain the fluorescent readouts. The assay plates were imaged in the FITC and Tetramethylrhodamine (TRITC) channels to obtain the mNeonGreen fluorescence intensity (reporter degradation data) and mScarlet fluorescence intensity (for cell segmentation). 293T-IKZF1 and 293T-IKZF3 reporter cell lines were imaged with exposures of 500 milliseconds (ms) for both FITC and TRITC channels, while the 293T-IKZF2 reporter cell line was imaged with exposures of 1000 ms for FITC and 1250 ms for TRITC. The resulting data was analyzed with Cell Reporter Xpress software using the 2-channel cell scoring analysis with a “percent positive” readout. The TRITC channel was selected for the “nuclei” segmentation with a threshold of 20 while the FITC channel was selected for the “Marker 1” segmentation and a threshold of 100 for the IKZF and IKZF3 reporter lines. […] The minimum segmentation width was set to 6 micrometers and the maximum segmentation width was set to 15 micrometers for all cell lines. The DC50 calculations were determined by regression to best fit four-parameter logistic curves using GraphPad Prism.

The target in assay [2] is IKZF1 (Ikaros) (Homo sapiens (Human), UniProt Q13422+Q96SW2). Kind of assay: IKZF1 reporter degradation assay (HEK 293T IKZF1-mNeonGreen reporter cell line). The settings on record: HEK 293T reporter cells, 24 hour incubation.
Source text: as §1, §2, §3, §4, §5

The target in assay [3] is IKZF2 (Helios) (Homo sapiens (Human), UniProt Q96SW2+Q9UKS7). Kind of assay: IKZF2 reporter degradation assay (HEK 293T IKZF2-mNeonGreen reporter cell line). The settings on record: 24 hour incubation; for inhibition at 1 µM: HEK-293T, 24 h.
Source text: as §1, §2, §3, §4, §5

Setting [4] is: Table 3, HEK 293T reporter cells.
Where [5] appears, read: second (untitled) table after Table 3.

Sequence of IKZF3 (Aiolos) (Q9UKT9 whole entry, the tested form may be a part): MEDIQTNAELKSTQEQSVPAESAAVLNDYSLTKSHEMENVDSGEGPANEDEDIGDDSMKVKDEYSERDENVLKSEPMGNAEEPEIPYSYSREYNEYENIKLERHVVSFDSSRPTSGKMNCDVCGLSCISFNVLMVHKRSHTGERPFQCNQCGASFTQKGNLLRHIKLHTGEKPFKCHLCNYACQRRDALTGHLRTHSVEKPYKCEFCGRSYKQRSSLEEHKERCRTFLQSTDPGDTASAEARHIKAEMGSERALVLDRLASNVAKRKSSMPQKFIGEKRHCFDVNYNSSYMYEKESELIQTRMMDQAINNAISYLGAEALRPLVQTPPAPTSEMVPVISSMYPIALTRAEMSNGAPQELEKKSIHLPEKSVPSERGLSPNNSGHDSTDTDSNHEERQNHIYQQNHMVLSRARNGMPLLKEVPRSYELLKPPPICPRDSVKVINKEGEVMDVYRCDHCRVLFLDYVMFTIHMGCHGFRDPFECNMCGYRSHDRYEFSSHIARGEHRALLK
Sequence of IKZF3 (Aiolos) (Q96SW2 whole entry, the tested form may be a part): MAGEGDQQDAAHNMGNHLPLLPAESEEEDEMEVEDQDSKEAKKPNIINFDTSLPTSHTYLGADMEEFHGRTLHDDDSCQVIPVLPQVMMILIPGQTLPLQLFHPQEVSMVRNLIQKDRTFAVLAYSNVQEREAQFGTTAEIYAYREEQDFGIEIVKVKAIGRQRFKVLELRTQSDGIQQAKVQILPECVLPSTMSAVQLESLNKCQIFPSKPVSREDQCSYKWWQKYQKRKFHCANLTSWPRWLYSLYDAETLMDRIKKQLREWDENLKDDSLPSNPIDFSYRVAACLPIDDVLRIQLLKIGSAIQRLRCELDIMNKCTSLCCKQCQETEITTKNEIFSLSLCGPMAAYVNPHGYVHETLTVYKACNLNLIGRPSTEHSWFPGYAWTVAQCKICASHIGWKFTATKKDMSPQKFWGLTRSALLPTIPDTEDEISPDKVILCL
Sequence of IKZF3 (Aiolos) (Q16531 whole entry partner, the tested form may be a part): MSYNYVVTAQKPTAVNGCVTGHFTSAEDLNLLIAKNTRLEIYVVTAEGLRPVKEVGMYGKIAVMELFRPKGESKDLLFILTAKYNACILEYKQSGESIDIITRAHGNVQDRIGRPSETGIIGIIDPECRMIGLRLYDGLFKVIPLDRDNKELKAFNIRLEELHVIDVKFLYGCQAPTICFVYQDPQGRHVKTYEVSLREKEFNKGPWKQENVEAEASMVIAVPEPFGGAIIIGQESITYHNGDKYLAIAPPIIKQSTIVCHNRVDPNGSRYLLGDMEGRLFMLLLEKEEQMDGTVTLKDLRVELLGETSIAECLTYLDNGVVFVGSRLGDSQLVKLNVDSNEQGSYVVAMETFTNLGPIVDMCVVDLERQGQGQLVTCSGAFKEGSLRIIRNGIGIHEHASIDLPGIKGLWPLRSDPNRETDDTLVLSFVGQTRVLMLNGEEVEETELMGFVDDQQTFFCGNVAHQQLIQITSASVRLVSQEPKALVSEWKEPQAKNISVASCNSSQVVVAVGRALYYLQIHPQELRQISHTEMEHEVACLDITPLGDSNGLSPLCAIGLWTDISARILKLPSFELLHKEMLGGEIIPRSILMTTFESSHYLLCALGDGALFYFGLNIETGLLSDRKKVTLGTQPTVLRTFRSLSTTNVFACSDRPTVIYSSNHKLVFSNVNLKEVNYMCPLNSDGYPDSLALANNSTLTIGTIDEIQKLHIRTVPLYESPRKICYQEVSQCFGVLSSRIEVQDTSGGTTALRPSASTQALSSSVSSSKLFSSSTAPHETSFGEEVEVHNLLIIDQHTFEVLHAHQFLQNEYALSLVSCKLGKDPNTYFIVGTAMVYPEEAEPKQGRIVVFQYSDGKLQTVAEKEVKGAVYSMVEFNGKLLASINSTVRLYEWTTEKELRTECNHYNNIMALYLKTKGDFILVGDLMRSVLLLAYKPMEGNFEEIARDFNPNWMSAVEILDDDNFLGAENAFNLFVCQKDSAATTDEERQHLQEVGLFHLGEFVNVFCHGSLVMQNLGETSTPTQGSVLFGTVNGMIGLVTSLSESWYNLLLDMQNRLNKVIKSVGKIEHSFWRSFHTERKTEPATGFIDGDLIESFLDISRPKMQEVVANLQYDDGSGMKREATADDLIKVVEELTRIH
Sequence of IKZF2 (Helios) (Q9UKS7 whole entry): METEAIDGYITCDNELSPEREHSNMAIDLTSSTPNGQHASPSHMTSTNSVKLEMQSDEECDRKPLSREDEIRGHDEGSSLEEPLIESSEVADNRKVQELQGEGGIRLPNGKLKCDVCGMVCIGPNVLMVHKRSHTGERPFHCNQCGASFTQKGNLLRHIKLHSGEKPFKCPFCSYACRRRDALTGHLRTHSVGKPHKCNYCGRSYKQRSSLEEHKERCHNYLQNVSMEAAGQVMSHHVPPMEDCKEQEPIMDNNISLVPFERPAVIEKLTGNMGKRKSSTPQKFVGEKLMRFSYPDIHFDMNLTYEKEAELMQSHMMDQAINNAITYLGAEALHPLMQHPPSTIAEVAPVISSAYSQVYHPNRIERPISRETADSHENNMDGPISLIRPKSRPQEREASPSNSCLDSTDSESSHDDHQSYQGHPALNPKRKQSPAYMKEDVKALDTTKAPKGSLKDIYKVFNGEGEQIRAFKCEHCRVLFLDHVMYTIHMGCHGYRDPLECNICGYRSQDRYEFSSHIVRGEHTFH
Sequence of IKZF2 (Helios) (Q96SW2 whole entry): as the sequence (Q96SW2 whole entry, the tested form may be a part) above
Sequence of IKZF2 (Helios) (Q16531 whole entry partner): as the sequence (Q16531 whole entry partner, the tested form may be a part) above
Sequence of IKZF1 (Ikaros) (Q13422 whole entry): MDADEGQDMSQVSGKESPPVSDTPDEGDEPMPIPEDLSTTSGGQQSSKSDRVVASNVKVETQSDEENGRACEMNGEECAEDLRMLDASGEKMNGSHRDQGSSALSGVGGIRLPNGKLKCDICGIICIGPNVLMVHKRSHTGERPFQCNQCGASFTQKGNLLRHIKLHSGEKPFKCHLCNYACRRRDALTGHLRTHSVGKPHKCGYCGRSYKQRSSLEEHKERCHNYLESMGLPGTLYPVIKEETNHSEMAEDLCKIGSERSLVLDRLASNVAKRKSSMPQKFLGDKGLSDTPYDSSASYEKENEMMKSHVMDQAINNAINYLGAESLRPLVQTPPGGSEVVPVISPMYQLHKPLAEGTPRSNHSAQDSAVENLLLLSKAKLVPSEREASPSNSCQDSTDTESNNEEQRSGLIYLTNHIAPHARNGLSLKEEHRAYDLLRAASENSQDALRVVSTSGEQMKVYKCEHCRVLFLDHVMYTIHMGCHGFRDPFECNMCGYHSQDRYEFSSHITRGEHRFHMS
Sequence of IKZF1 (Ikaros) (Q96SW2 whole entry): as the sequence (Q96SW2 whole entry, the tested form may be a part) above
Sequence of IKZF1 (Ikaros) (Q16531 whole entry partner): as the sequence (Q16531 whole entry partner, the tested form may be a part) above

What is called DC50 is the concentration at which degradation of the target reaches its halfway point. As a reminder, the inhibition is how much of the control response was suppressed. Turning to `O=C1CCC(N2Cc3cc(O[C@H]4CCCC[C@@H]4N4CC(C5CCCCC5)C4)ccc3C2=O)C(=O)N1` (stereo partly drawn) [Compound 1, 3-(5-(((1S,2S)-2-(3-cyclohexylazetidin-1-yl)cyclohexyl)oxy)-1-oxoisoindolin-2-yl)piperidine-2,6-dione], the DC50 in assay [1] is more than 30 µM; in assay [2], more than 30 µM; in assay [3] (HEK 293T reporter cells), 4 nM. For the same compound, the inhibition at 1 µM in assay [3] (setting [4]) and in assay [3] (setting [5]) was 85.1% in each case.
Take `O=C1CCC(N2Cc3cc(O[C@H]4CCCC[C@@H]4N4CC(C5CCC(F)(F)CC5)C4)ccc3C2=O)C(=O)N1` (stereo partly drawn) [Compound 2, 3-(5-(((1S,2S)-2-(3-(4,4-difluorocyclohexyl)azetidin-1-yl)cyclohexyl)oxy)-1-oxoisoindolin-2-yl)piperidine-2,6-dione]: the values for the DC50 in assay [1], in assay [2] and in assay [3] (HEK 293T reporter cells) were more than 30 µM, more than 30 µM and 3 nM, respectively. Also, the inhibition at 1 µM in assay [3] (setting [4]) and in assay [3] (setting [5]) was 74.6% in each case.
`O=C1CCC(N2Cc3cc(O[C@H]4CCCC[C@@H]4N4CC(C5CC5)C4)ccc3C2=O)C(=O)N1` (stereo partly drawn) [Compound 3, 3-(5-(((1S,2S)-2-(3-cyclopropylazetidin-1-yl)cyclohexyl)oxy)-1-oxoisoindolin-2-yl)piperidine-2,6-dione]: the DC50 was more than 30 µM in assay [1], more than 30 µM in assay [2] and 12 nM in assay [3] (HEK 293T reporter cells). Further, the inhibition at 1 µM in assay [3] (setting [4]) and in assay [3] (setting [5]) was 67.7% each time.
Take `O=C1CCC(N2Cc3cc(O[C@H]4CCCC[C@@H]4N4CC(C5CCC5)C4)ccc3C2=O)C(=O)N1` (stereo partly drawn) [Compound 5, 3-(5-(((1S,2S)-2-(3-cyclobutylazetidin-1-yl)cyclohexyl)oxy)-1-oxoisoindolin-2-yl)piperidine-2,6-dione]: the DC50 was more than 30 µM in assay [1], more than 30 µM in assay [2] and 4 nM in assay [3] (HEK 293T reporter cells). Further, the inhibition at 1 µM in assay [3] (setting [4]) and in assay [3] (setting [5]) was 85% in each case.
For the compound `O=C1CCC(N2Cc3cc(O[C@H]4CCCC[C@@H]4N4CC(C5CCCC5)C4)ccc3C2=O)C(=O)N1` (stereo partly drawn) [Compound 6, 3-(5-(((1S,2S)-2-(3-cyclopentylazetidin-1-yl)cyclohexyl)oxy)-1-oxoisoindolin-2-yl)piperidine-2,6-dione], the DC50 is more than 30 µM in assay [1], more than 30 µM in assay [2] and 3 nM in assay [3] (HEK 293T reporter cells). In addition, the inhibition at 1 µM in assay [3] (setting [4]) and in assay [3] (setting [5]) was 86.3% in each case.
Consider `O=C1CCC(N2Cc3cc(O[C@H]4CCC[C@@H]4N4CC(C5CCC(F)(F)CC5)C4)ccc3C2=O)C(=O)N1` (stereo partly drawn) [Compound 13, 3-(5-(((1S,2S)-2-(3-(4,4-difluorocyclohexyl)azetidin-1-yl)cyclopentyl)oxy)-1-oxoisoindolin-2-yl)piperidine-2,6-dione], for which the results for the DC50 in assay [1], in assay [2] and in assay [3] (HEK 293T reporter cells) were more than 30 µM, more than 30 µM and 5 nM, respectively. Further, the inhibition at 1 µM in assay [3] (setting [4]) and in assay [3] (setting [5]) was 75.9% throughout.
As to `CC(C)OC1CCC(C2CN([C@H]3CCCC[C@@H]3Oc3ccc4c(c3)CN(C3CCC(=O)NC3=O)C4=O)C2)CC1` (stereo partly drawn) [Compound 16, 3-(5-(((1S,2S)-2-(3-((cis)-4-isopropoxycyclohexyl)azetidin-1-yl)cyclohexyl)oxy)-1-oxoisoindolin-2-yl)piperidine-2,6-dione], the half-maximal degradation concentration (DC50) in assay [1] is more than 30 µM; in assay [2], more than 30 µM; in assay [3] (HEK 293T reporter cells), 1 nM. For the same compound, the inhibition at 1 µM in assay [3] (setting [4]) and in assay [3] (setting [5]) was 95.5% in each case.
In the case of `CC(C)OC1CCC(C2CN([C@H]3CCCC[C@@H]3Oc3ccc4c(c3)CN(C3CCC(=O)NC3=O)C4=O)C2)CC1` (stereo partly drawn) [Compound 17, 3-(5-(((1S,2S)-2-(3-((trans)-4-isopropoxycyclohexyl)azetidin-1-yl)cyclohexyl)oxy)-1-oxoisoindolin-2-yl)piperidine-2,6-dione], the results for the DC50 in assay [1], in assay [2] and in assay [3] (HEK 293T reporter cells) were more than 30 µM, more than 30 µM and 1 nM, respectively. The “IKZF2% Degradation @ 1 μM” value in assay [3] (setting [4]) and in assay [3] (setting [5]) was 96.7% each time.
